Source: patent US20250281554A1, “COMPOSITION FOR IMPROVING DRUG SENSITIVITY OF ANTIBACTERIAL DRUG TO METHICILLIN-RESISTANT STAPHYLOCOCCUS AUREUS (MRSA), COMPOSITION FOR TREATING OR PREVENTING MRSA INFECTION, AND COMPOSITION FOR REDUCING VIRULENCE OF MRSA” (priority 2021, published 2025)
≈ marks a conversion by molar mass, not a printed value.

Legend:
Assay type in all cases: cell-based, methicillin-resistant Staphylococcus aureus
[1] = tested on: MRSA2007-13 SAm1-201 (mgrA mutation and femA mutation); assay: drug sensitivity test (MIC method), SAm1-201; conditions: for MIC, SAm1-201: dry plate, cultured 20 hours
Experimental: (§1) Next, the drug sensitivities of a wild-type strain (MRSA2007-13 strain) and mutated strains having a mutation in both mgrA and femA (SAm1-201, SAm1-206, SAm1-210) to antibacterial drugs were measured in a drug sensitivity test (MIC method). The test method will be explained. A bacterial solution (a wild-type strain or a mutant) precultured overnight was diluted with sterile physiological saline to reach OD600≈0.26, and 25 μL of the bacterial solution was added to 12 mL of Mueller-Hinton liquid medium (Eiken Chemical Co., Ltd.). To each well of a dry plate (Eiken Chemical Co., Ltd.), […] of the bacterial solution was added, and cultured for 20 hours. After culturing, the MIC was determined based on determination criteria for the dry plate.

[2] = tested on: MRSA2007-13 SAm1-206 (mgrA mutation and femA mutation); assay: drug sensitivity test (MIC method), SAm1-206; conditions: dry plate, cultured 20 hours, unit assumed
Experimental: as §1

[3] = tested on: wild-type strain (MRSA2007-13 strain); assay: drug sensitivity test (MIC method), wild-type strain; conditions: MRSA2007-13 WT; for MIC, WT: dry plate, cultured 20 hours, in µg/mL (unit assumed); on drug sensitivity rating (MIC method), WT: key: resistance (R); sensitivity(S)
Experimental: as §1

[4] = tested on: MRSA2007-13 SAm1-210 (mgrA mutation and femA mutation); assay: drug sensitivity test (MIC method), SAm1-210; conditions: dry plate, cultured 20 hours, unit assumed
Experimental: as §1

[5] = tested on: wild-type strain (MRSA2007-13 strain); assay: drug sensitivity test (disk method), wild-type strain; conditions: MRSA2007-13 WT, 37° C., 24 hours; for drug sensitivity rating (disk method), WT: Mueller-Hinton II agar; for diameter of inhibitory zone, WT: number in brackets; on drug sensitivity rating (disk method), WT: key: resistance (R); sensitivity(S)
Experimental: (§2) The drug sensitivities of a wild-type strain (MRSA2007-13 strain) and a mutant (SAm1-201) to β-lactam antibacterial drugs were measured in a drug sensitivity test (disk method). The test method will be explained. The wild-type strain (MRSA2007-13 strain) or the mutant (SAm1-201) was streaked on LB-Agar, and cultured at 37° C. overnight. The following day, single colonies were collected, added to 5 mL of Trypticase soy broth, and subjected to shaking culture at 37° C. overnight. After culturing, the bacterial solution was adjusted to McFarland turbidity No. 0.5, and evenly smeared on Mueller-Hinton II agar medium with a sterile cotton swab. After disposing sensitivity disks on the agar medium, culture was performed at 37° C. for 24 hours, and the diameter of an inhibitory zone formed around each disk was measured in millimeters.

[6] = tested on: mutant (SAm1-201) of MRSA2007-13; assay: drug sensitivity test (disk method), mutant SAm1-201; conditions: MRSA2007-13 SAm1-201, 37° C., 24 hours; for drug sensitivity rating (disk method), SAm1-201: Mueller-Hinton II agar; for diameter of inhibitory zone, SAm1-201: number in brackets; on drug sensitivity rating (disk method), SAm1-201: key: resistance (R); sensitivity(S)
Experimental: as §2

[7] = tested on: wild-type strain (MRSA2007-13 strain); assay: growth-inhibitory effect of phage and oxacillin added from the beginning, turbidimetry; conditions: WT MRSA, ϕSA012 ≈1.0×10^7 pfu/mL (MOI≈0.1), oxacillin sodium 16 μg/mL, 37° C.
Experimental: The test method is shown in the following. This test was performed by means of turbidimetry. A bacterial solution (wild-type strain (MRSA2007-13 strain)) precultured overnight was diluted with LB-Broth to reach OD600≈1.0, and further 10-fold diluted (˜ 1.0×10^8 cfu/mL).
The plate was set in a Sunrise Rainbow Thermo RC (Tecan Japan Co., Ltd.), and shaking culture was performed at 37° C. for 90 hours while absorbance values at a wavelength of 590 nm were measured every 15 minutes.

Row | Compound | MIC, SAm1-201 ([1]; unit assumed) | MIC, SAm1-206 [2] | MIC, WT [3] | MIC, SAm1-210 [4] | drug sensitivity rating (disk method), WT [5] | drug sensitivity rating (disk method), SAm1-201 [6] | diameter of inhibitory zone, SAm1-201 [6] | drug sensitivity rating (MIC method), SAm1-201 ([1]; symbol in brackets) | drug sensitivity rating (MIC method), WT ([3]; symbol in brackets) | MIC, SAm1-201 [1] | diameter of inhibitory zone, WT [5] | bacterial growth inhibition (turbidity) over 90 hours [7]
1 | CC1(C)S[C@@H]2[C@H](NC(=O)[C@H](N)c3ccc(O)cc3)C(=O)N2[C@H]1C(=O)O [AMPC, amoxicillin] | 8 µg/mL (≈ 21.9 µM) | 16 µg/mL (≈ 43.8 µM) | 64 | 2 µg/mL (≈ 5.47 µM) | R | S | 34 millimeters |  |  |  |  | 
2 | CO/N=C(\C(=O)N[C@@H]1C(=O)N2C(C(=O)O)=C(/C=C\c3scnc3C)CS[C@H]12)c1csc(N)n1 [CDTR, cefditoren] | < 0.5 µg/mL | < 0.5 µg/mL | >2 | < 0.5 µg/mL |  |  |  |  |  |  |  | 
3 | CC1=C(C(=O)O)N2C(=O)[C@@H](NC(=O)[C@H](N)c3ccccc3)[C@H]2SC1 [CEX, cephalexin] |  |  |  |  | R | S | 29 millimeters |  |  |  |  | 
4 | Cc1nnc(SCC2=C(C(=O)O)N3C(=O)[C@@H](NC(=O)Cn4cnnn4)[C@H]3SC2)s1 [CEZ, cefazolin] |  | 1 µg/mL (≈ 2.2 µM) | >128 | 0.25 µg/mL (≈ 0.55 µM) |  |  |  | (S) | (R) |  |  | 
5 | CC/C=C(\C(=O)N[C@@H]1C(=O)N2C(C(=O)O)=C(COC(N)=O)CS[C@H]12)c1csc(N)n1 [CFPN, cefcapene] | < 0.5 µg/mL | < 0.5 µg/mL | >2 | < 0.5 µg/mL |  |  |  |  |  |  |  | 
6 | COCC1=C(C(=O)O)N2C(=O)[C@@H](NC(=O)/C(=N\OC)c3csc(N)n3)[C@H]2SC1 [CPDX, cefpodoxime] |  |  |  |  | R | S | 28 millimeters |  |  |  |  | 
7 | C[C@H]1c2cccc(O)c2C(=O)C2=C(O)[C@]3(O)C(=O)C(C(N)=O)=C(O)[C@@H](N(C)C)[C@@H]3[C@@H](O)[C@@H]21 [DOXY, doxycycline] | 4 µg/mL (≈ 9 µM) | 8 µg/mL (≈ 18 µM) | 8 | 4 µg/mL (≈ 9 µM) |  |  |  |  |  |  |  | 
8 | CCN1CCN(c2cc3c(cc2F)c(=O)c(C(=O)O)cn3C2CC2)CC1 [ERFX, enrofloxacin] | 64 µg/mL (≈ 178 µM) | 64 µg/mL (≈ 178 µM) | 128 | 32 µg/mL (≈ 89 µM) |  |  |  |  |  |  |  | 
9 | C[C@@H](O)[C@H]1C(=O)N2C(C(=O)O)=C([C@H]3CCCO3)S[C@H]12 [FRPM, faropenem] |  | 0.25 µg/mL (≈ 0.876 µM) | >128 | 0.125 µg/mL (≈ 0.438 µM) | R | S | ≥ 50 millimeters |  |  | 0.125> |  | 
10 | C[C@@H](O)[C@H]1C(=O)N2C(C(=O)O)=C(SCCN=CN)C[C@H]12 [IPM, imipenem] |  | 1 µg/mL (≈ 3.34 µM) | 64 | 0.125 µg/mL (≈ 0.418 µM) | R | S | 44 millimeters |  |  | 0.125> | 9 millimeters | 
11 | C[C@@H](O)[C@H]1C(=O)N2C(C(=O)O)=C(S[C@@H]3CN[C@H](C(=O)N(C)C)C3)[C@H](C)[C@H]12 [MEPE, meropenem] |  | 4 µg/mL (≈ 10.4 µM) | 32 | 0.125 µg/mL (≈ 0.326 µM) | R | S | 28 millimeters |  |  | 0.125> | 7 millimeters | 
12 | Cc1onc(-c2ccccc2)c1C(=O)N[C@@H]1C(=O)N2[C@@H]1SC(C)(C)[C@@H]2C(=O)O [MPIPC, oxacillin] | 0.125 µg/mL (≈ 0.311 µM) | 4 µg/mL (≈ 9.96 µM) |  | 0.125 µg/mL (≈ 0.311 µM) | R | S | 35 millimeters |  |  |  |  | failed in inhibiting bacterial growth
13 | CN(C)[C@@H]1C(O)=C(C(N)=O)C(=O)[C@@]2(O)C(O)=C3C(=O)c4c(O)cccc4[C@@](C)(O)[C@H]3[C@H](O)[C@@H]12 [OTC, oxytetracycline] | 64 µg/mL (≈ 139 µM) | 128 µg/mL (≈ 278 µM) | 128 | 128 µg/mL (≈ 278 µM) |  |  |  |  |  |  |  | 
14 | penicillin [PCG] | 2 µg/mL | 2 µg/mL | >16 | 4 µg/mL |  |  |  |  |  |  |  | 
